Results reported in patent US20260306463A1, “SIK INHIBITORS TO TREAT CHRONIC KIDNEY DISEASE” (The General Hospital Corporation, priority 2023, published 2026).
Entries after “also recorded” stand apart in the source; their conditions may differ. Where two headings read alike, the source gives them in different places.

Columns and labels:
[1] = tested on: intact proximal tubular epithelial genes; experiment: whole kidney RNA RT-qPCR of proximal tubule marker genes, adenine CKD mice; type: in vivo, mouse
Experimental: FIGS. 1A-1E. […] (A) Study design: Female CD1 mice (n=8/group) were treated with control or 0.2% adenine diet starting at 6 weeks of age along with vehicle or SK-124 (40 mg/kg) treatment by oral gavage once daily. Bottom: body weight of mice in the indicated treatment groups. […] (B, C) After 6 weeks of treatment, the indicated analytes were measured in fasting serum or urine. […] (D) H+E-stained kidney sections were assessed on a blinded basis by a pathologist for tubulointerstitial damage. (E) Whole kidney RNA from the indicated groups was analyzed by RT-qPCR for the indicated proximal tubule marker gene. For all panels in all figures, 1-way ANOVA was performed with Dunnett's posthoc analysis to analyze differences between treatment groups, p values less than 0.05 are shown in graph.
(§1) 7-week-old female CD1 mice were obtained from Charles River Laboratories (Wilmington, MA) and were fed on 0.2% adenine containing diet (TD.130900; 0.2% Adenine, 0.9% Phosphate, 0.5% Calcium; Envigo) or control diet (TD. 96348) for 6 or 8 weeks to induce chronic kidney disease (CKD). Mice were oral gavaged with 40 mg/kg SK-124, or intraperitonially injected with 80 μg/kg PTH, or treated with vehicle 5 days a week for the duration of the special diet.
(§2) For studies with Ubiquitin-Cre^ERt2; Sik2^ff; Sik3^ff mice (JAX #007001 for Ubiquitin-Cre^ERt2: RRID:MGL:5905012 for Sik2 foxed mice; and Sik3^tmla(EUCOMM)Hmgu mice (RRID:MGI:5085429) bred to PGK1 FLPo mice (JAX #011065) in order to generate Sik3 foxed mice), tamoxifen was injected (1 mg, IP, Q48 hours, 3 injections total) in all animals including Cre-negative control littermates housed in cages with Pure-o′Cel bedding at 5 weeks of age. Mice were then fed on 0.2% adenine diet from 6 weeks to 9 weeks of age. Mice were fasted for 6 hours and treated with SK-124 and PTH 4 hours and 2 hours before the sacrifice. Blood and spot urine samples were collected by cheek pouch bleeding and by pipetting urine collected on hydrophobic sand (Labsand; Braintree, MA). Kidneys were immediately snap-frozen in liquid nitrogen for TRIzol (Life Technologies)-Chloroform (Fischer Scientific) based RNA isolation or protein isolation, or fixed in 10% formalin at 4C for 24 hrs for histology. All serum and urine measurements were performed using commercial bioassay detection reagents listed in Table 1, following the manufacturers' instructions. Urine protein levels were measured by Bradford assay and normalized to urine creatinine.
cDNA was prepared using Primescript RT kit (Takara Inc), with 750 ng RNA per reaction. […] Hmbs was used as a control housekeeping gene for mouse samples, and B-Actin was used for organoids, relative expression was calculated (2^-deltaCT method) and compared to the mean of control group if necessary. […]

[2] = tested on: bone and kidney; settings: bone and kidney (ref. 7); cited from earlier work
[3] = tested on: mice with adenine diet-induced chronic kidney disease; experiment: 8 week adenine diet CKD study, SK-124 versus once daily PTH injections; type: in vivo, mouse (female CD1); settings: 8 weeks
Experimental: FIGS. 4A-4D. […] (A) Study design: Female CD1 mice (n=8/group) were treated with control or 0.2% adenine diet starting at […] of age along with vehicle, PTH (80 mcg/kg/d, IP injections) or SK-124 (40 mg/kg) treatment by oral gavage once daily. Mice were treated for 8 weeks. (B, C) After 8 weeks of treatment, the indicated serum analyte was measured. (D) Whole kidney RNA from the indicated groups was analyzed by RT-qPCR for the indicated fibrosis marker gene.
as §1, §2
cDNA was prepared using Primescript RT kit (Takara Inc), with 750 ng RNA per reaction. RT-qPCR was performed by using PerfeCa® SYBR® Green FAstMix® ROX (Quanta bio) in the StepOnePlus™ Real-time PCR System (Applied Biosystems). Hmbs was used as a control housekeeping gene for mouse samples, and B-Actin was used for organoids, relative expression was calculated (2^-deltaCT method) and compared to the mean of control group if necessary. Primers used for RT-qPCR are listed in Table 2 (mouse primers) and Table 3 (human primers).

[4] = tested on: SIK2/SIK3; settings: reference to WO 2022/031928, Sato et al., Yoon et al., cited from earlier work
[5] = tested on: mouse CKD kidneys and human kidney organoids; experiment: overlap of injury-regulated genes rescued by SK-124 in mouse adenine diet and human cisplatin organoid studies; settings: Venn overlap, both CKD models
Experimental: FIGS. 13A-13E. Transcriptomic effects of SK-124 in cisplatin-induced human kidney organoid model. RNA-seq was performed on kidney organoid RNA samples (n=4/group) from FIG. 8. Volcano plot show gene regulated (>2-fold change, p(adj)<0.05) by cisplatin (versus vehicle, A) or within cisplatin-treated organoids by SK-124 (versus DMSO control, B). In Volcano plot, representative fibrosis/injury markers (Col8a1, Fni, Serpinel) and proximal tubule integrity (Lrp2 and Hnf4a) are shown. Scatterplot (C) and heatmap (D) showing integration of individual RNA-seq comparisons.
(§3) Isolated RNA samples from the mouse adenine diet study and human kidney organoid experiment were submitted to Novogene and bulk-RNA sequencing on NovaSeq X Plus Ilumina Novoseq Platform. Sequencing reads were mapped to the mouse reference genome (mm10/GRCm38) or human reference genome (GRCh38/hg38) using Salmon and differential gene expression analysis was performed using DESeq2.

[6] = tested on: whole kidney transcriptome; experiment: bulk RNA-sequencing of whole kidney, adenine CKD mice; type: in vivo, mouse; settings: bulk RNA-seq
Experimental: FIGS. 6A-6F. The effects of SK-124 treatment at the transcriptomic level in adenine-induced mouse chronic kidney disease. RNA-seq was performed on whole kidney RNA samples (n=7/group) from FIG. 1. Volcano plot show gene regulated (>2-fold change, p(adj)<0.05) by CKD (versus control diet, A) or in CKD by SK-124 (versus vehicle control, B). In Volcano plot, representative fibrosis markers (Col3a1, Vim, Serpinel) and proximal tubule integrity (Lrp2. Atplai, and Hnf4a) are shown. Scatterplot (C) and heatmap (D) showing integration of individual RNA-seq comparisons. […] (E) Single cell RNA-sequencing was performed on dissociated kidneys from adenine diet fed mice treated with vehicle or SK-124 (n=4/group). […] (F) Relative cellularity of each annotated cluster is shown in pie chart format for adenine+vehicle (CKD-Veh) or adenine+SK-124 (CKD-SK-124) mice.
as §3

[7] = whole kidney RNA, RT-qPCR, 6 weeks adenine diet
[8] = adenine vs control diet, or SK-124 vs vehicle in CKD mice

**Q.** What does the source list for `CCc1nnc(-c2c(OC)cc(-c3cnc4cc(-c5cnn(C)c5)ccn34)cc2OC)o1` [SK-124, 2-[2,6-Dimethoxy-4-[7-(1-methylpyrazol-4-yl)imidazo[1,2-a]pyridin-3-yl]phenyl]-5-ethyl-1,3,4-oxadiazole]?
**A.** epithelial cell integrity ([1]; adenine-induced CKD): preserves epithelial cell integrity; Atpla1 expression [1, 7]: restored expression; Lrp2 expression [1, 7]: restored expression; Slc34a1 expression [1, 7]: restored expression; PTH-like effects in vivo [2]: PTH-like effects in vivo in bone and kidney; CKD-MBD markers ([3]; SK-124 40 mg/kg oral gavage once daily, or PTH 80 mcg/kg/d IP): reduced CKD-MBD markers; kidney function ([3]; SK-124 40 mg/kg oral gavage once daily, or PTH 80 mcg/kg/d IP, 40 mg/kg): improved kidney function; fibrosis marker gene expression ([3]; whole kidney RT-qPCR, SK-124 40 mg/kg oral, or PTH 80 mcg/kg/d IP): reduced fibrosis marker gene expression; SIK isoform selectivity [4]: specific SIK2/SIK3 inhibitor; also recorded: SIK2/SIK3-selective inhibitor; SIK isoform selectivity ([4]; listed as SIK-124): selective SIK2/SIK3 inhibitor; conserved genes induced with injury and reduced by SK-124 [5]: 419 genes; conserved genes suppressed by injury and restored by SK-124 [5]: 373 genes; patterns of dysregulated gene expression in CKD ([6]; scatterplot and heat map, SK-124 vs vehicle): conversely regulated; also recorded: reversed; injury markers (Col3a1, Vim, Serpine1) [6, 8]: suppressed; markers of intact proximal epithelial cells (Lrp2, Atpla1, Hnf4a) / epithelial cell integrity [6, 8]: preserved expression
